From patent publication US20150025025A1, “Immuno-modulators for treating functional epithelial syndromes” (priority 2013, published 2015)

Columns and labels:
[1] = test system: patients having esophageal erosions; assay: Randomized seven day trial in patients with esophageal erosions (Example 19); type: in vivo, human; conditions: for Complete Relief, number of patients / Complete Relief, percent of patients: loss of all symptoms by day 8; for Complete Healing, number of patients / Complete Healing, percent of patients: no erosions by endoscopy at day 8
From the text: The trial period was seven days. There were two primary end points, i.e., healing and no healing, and three secondary end points, i.e., no relief, partial relief, and complete relief of pain. Healing was defined as no evidence of erosions by endoscopy at day 8 that were present on day 0. No healing was defined as evidence of erosions remaining on day 8.

[2] = test system: patient with functional dyspepsia; assay: Case: patient with functional dyspepsia (Example 14); type: in vivo, human; conditions: post-prandial early satiety, bloating, indigestion
From the text: A person diagnosed with functional dyspepsia according to the Rome II criteria suffered from post-prandial early satiety, bloating, and stomach indigestion. […] Initially, there was only a lessening of post-prandial indigestion.

[3] = test system: gastroduodenal ulceration; assay: Case: equine ulcer colic in a foal (Example 24); type: in vivo; conditions: prior treatment
From the text: A 3 week old equine foal was diagnosed by a large animal veterinarian with gastroduodenal ulceration following 3 days of poor appetite. […] The foal resumed normal diet and activity by day 4 of treatment.

right dorsal colitis = assay: Case: equine right dorsal colitis (Example 23); type: in vivo, horse; conditions: 8-12 grams four times daily, NSAID stopped
Description: An 8 year old quarter horse diagnosed with right dorsal colitis by an equine veterinarian had been on high doses of bananime, a non-steroidal anti-inflammatory (NSAID) pain reliever. Right dorsal colitis is known to be caused by ulcerations within the colon of the horse. Treatment was initiated by cessation of the NSAID and administration of 8-12 grams sucralfate four times daily. […] Oral administration to the horse of 30 ml of an immuno-modulating polygalacturonic-rhamnose suspension every 8 hours led to an improvement in attitude and appetite within 24 hours, a complete cessation of diarrhea in 36 hours, and the resumption of a regular diet in 72 hours.

Molecule	Complete Relief, number of patients [1]	Complete Relief, percent of patients [1]	Complete Healing, number of patients [1]	Complete Healing, percent of patients [1]	Effect on symptoms of functional dyspepsia [2]	Effect on symptoms [3]	Course of right dorsal colitis under treatment (right dorsal colitis)	Complete Healing, percent of patients ([1]; listed as ranitidine)
COc1ccc2[nH]c([S+]([O-])Cc3ncc(C)c(OC)c3C)nc2c1 (centres unmarked) [Omeprazole, omeprazole]	4	40%	3	30%				
COCCCOc1ccnc(C[S+]([O-])c2nc3ccccc3[nH]2)c1C (centres unmarked) [raberazole]					failed to improve their symptoms			
COc1ccc2nc([S@@+]([O-])Cc3ncc(C)c(OC)c3C)[nH]c2c1 [esomeprazole]					failed to improve their symptoms			
sucralfate					failed to improve their symptoms	failed to alleviate the symptoms	worsened after 2 days	
CNC(=C[N+](=O)[O-])NCCSCc1ccc(CN(C)C)o1 [H2B Ranitidine, ranitidine]	3	30%	0 (0%)	0 (0%)				0%
